Data as given in paper PMC12070314, “Efficient Small-Molecule Reversal Agents for Anticoagulant Fondaparinux” (ACS Pharmacology & Translational Science, 2025).

Tests used:
[1] = tested on: freshly extracted mouse blood; test: Naked-eye ex vivo blood coagulation assay; assay type: cell-based; conditions: 100 μM fond + 200 μM antidote, 5 min
Protocol: Considering the results obtained in the in vitro assays, we aimed to test our molecules in a more relevant and challenging environment. To this aim, we performed naked-eye ex vivo coagulation assays (Figure ). Freshly extracted mouse blood samples were treated with fond (100 μM final concentration) in the absence and in the presence of different antidotes (two molar equivalents). Blood coagulation was visually inspected by the simple inversion of the vials. For a fair comparison between different series, all of the experiments were done in parallel with the corresponding control samples of untreated mouse blood (labeled “0” in Figure ). […] The effect of antidotes alone on blood coagulation was also tested (Figure B), showing that neither of the three small molecules appreciably changed the coagulation properties.
This naked-eye coagulation test is an adaptation of the whole blood clotting time assay. , Freshly collected mouse blood was directly used without further treatment. 300 μL aliquots were dispensed in Eppendorf tubes, to which fondaparinux (100 μM), and/or potential antidotes (3AC, 3FF, ciraparantag, or protamine, 200 μM) were added, and a picture was taken after 5 min. Clot formation was verified by inverting the Eppendorf vials.

A549 cells = test: MTT cell viability assay; assay type: cell-based; conditions: A549, concentrations <100 μM
Protocol: (§1) A549 and HeLa cells were maintained in DMEM ([…] glucose, Sigma) containing 10% fetal calf serum (FCS), 2 mM glutamine, 50 U/mL penicillin, and […] streptomycin at 37 °C under a 5% CO2 atmosphere. HMEC-1 and fibroblast cells were maintained in MCDB 131 medium (GIBCO) containing 10% fetal calf serum (FCS), 2 mM glutamine, 50 U/mL penicillin, and […] streptomycin at 37 °C under a 5% CO2 atmosphere.
(§2) The viability of A549 and HeLa cells was tested using the 3-(4,5-dimethylthiazol-2-yl)-2,5-diphenyltetrazolium bromide (MTT) assay. In it, exponentially growing cells were detached from the culture flasks using a trypsin–0.25% EDTA solution, and the cell suspension was seeded onto a 96-well plate (Nunclon) at a concentration of 9k cells/well. The toxicity of 3AC and 3FF was tested as follows: 24 h after seeding, culture medium was discarded and replaced by compound solution in PBS that was diluted with cell culture medium to the final concentration: [3××] = 10 to 100 μM. MTT (0.5 mg/mL) was added. […] Absorbance was measured at 570 nm using a spectrophotometric BioTek Synergy 2 Microplate Reader (Agilent), 30 min after the addition of DMSO. Cell viability is expressed as an absorbance percent ratio of cells treated with compound to untreated cells, which were used as a control. The results are the average from three independent experiments.

HeLa cells = test: MTT cell viability assay; assay type: cell-based; conditions: concentrations <100 μM
Protocol: as §1, §2

HMEC-1 cells = test: Resazurin cell viability assay; assay type: cell-based; conditions: for Cell viability (toxicity): HMEC-1, concentrations <100 μM, resazurin
Protocol: as §1
(§3) The viability of HMEC-1 and fibroblast cells was tested using the resazurin assay. In it, exponentially growing cells were detached from the culture flasks using a trypsin–0.25% EDTA solution, and the cell suspension was seeded onto a 96-well plate (Nunclon) at a concentration of 9k cells/well. Toxicity of 3AC and 3FF was tested as follows: 72 h after seeding, culture medium was discarded and replaced by compound solution in PBS that was diluted with cell culture medium to the final concentration: [3××] = 10 to 100 μM. Resazurin (0.1 mg/mL) was added. After 2 h of incubation, fluorescence was measured (λex = 560 nm // λem = 590 nm) using a spectrophotometric BioTek Synergy 2 Microplate Reader (Agilent). Cell viability is expressed as an emission percent ratio of cells treated with the compound to untreated cells, which were used as a control. The results are the average from three independent experiments. In experiments with fondaparinux, the cells were incubated for 2 h with [fondaparinux] = 100 μM and [3××] = 50/100/200 μM following the same procedure for the rest of the protocol.

fibroblasts = test: Resazurin cell viability assay; assay type: cell-based; conditions: for Cell viability (toxicity): concentrations <100 μM, resazurin
Protocol: as §1, §3

[2] = NMR titration and DOSY binding study with fondaparinux; conditions: water (D2O buffer), neutral pH
From the text: The [3AC–fond] binding was additionally studied by NMR. Titration of fond with 3AC modifies several ^1H and ^13C NMR signals that can be readily monitored by ^1H and ^1H–^13C HSQC NMR experiments (Figures and S5–S7). A close analysis of the corresponding chemical-shift perturbations (Figures C and S8) allows determination of the sugar rings to be more affected by the presence of the ligand (see the chemical structure with arbitrary labeling of the rings in Figure A). We hypothesized that [fond–3AC] binding occurs by polar interactions (through the ammonium and OH groups of 3AC with sulfate, carboxylate, and OH residues of fond) and nonpolar contacts (by CH–π interactions between aromatic rings of 3AC and pyranose CH bonds of fond). […] The corresponding ^1H NMR spectra in 90% H2O/10% D2O at pH 8.2 and 288 K allow detection of the NH-sulfamate protons (Figures D and S9) and confirmed the stronger perturbation of ring V. The conformational behavior of fond in the absence and presence of 3AC was additionally studied by acquiring a series of 2D NOESY and 2D ROESY spectra (Figures S10–S13). […]
One- and two-dimensional (1D and 2D) NMR experiments were performed at 298 K on a 500 MHz Bruker AVANCE III HD instrument equipped with a z-gradient (65.7 G cm^–1) inverse TCI-cryoprobe. Samples were dissolved in 5 mM Tris-d11 buffer with 50 mM NaCl (in D2O, pH 7.5, uncorrected pH meter reading). […]

Row | SMILES | Reversal of fond anticoagulant effect (clot formation by vial inversion) [1] | Cell viability (toxicity) (A549 cells) | Cell viability (toxicity) (HeLa cells) | Cell toxicity in the presence of fondaparinux (HMEC-1 cells; HMEC-1, 100 μM fondaparinux, 50/100/200 μM compound) | Cell viability (toxicity) (HMEC-1 cells) | Cell toxicity in the presence of fondaparinux (fibroblasts; 100 μM fondaparinux, 50/100/200 μM compound) | Cell viability (toxicity) (fibroblasts) | Binding to fond by NMR [2]
1 | Oc1ccccc1CNCCCNCCCCNCCCNCc1ccc2c(c1)Cc1ccccc1-2 [Compound 3AC] | efficiently revert the drug effect | low to acceptable cell toxicity | low to acceptable cell toxicity | reduced | low to acceptable cell toxicity | reduced | low to acceptable cell toxicity | strong binding
2 | Oc1ccc2ccccc2c1CNCCCNCCCCNCCCNCc1c(O)ccc2ccccc12 [Compound 3FF] | efficiently revert the drug effect | low to acceptable cell toxicity | low to acceptable cell toxicity | – | low to acceptable cell toxicity | – | low to acceptable cell toxicity | slightly weaker binding
